Assay results: patent US20100111965A1, “COMBINATION THERAPY” (FUSION ANTIBODIES LIMITED, priority 2006, published 2010)

Assays:
[1] = tested on: H460 lung carcinoma cell line; experiment: FACS analysis of cell surface AREG in H460 with or without irinotecan; type: cell-based; conditions: 2.5 μM for 48 hours
Experimental: Following treatment cells were stained with AREG monoclonal antibodies and analysed by FACS
After 48 hours cells were washed in PBS and blocked for 20 minutes in Normal Goat Serum. 5×10^5 cells were incubated with AREG antibodies or isotype control for 2 hours and washed in PBS-T. The cells were incubated with a FITC conjugated goat anti-mouse antibody for 1 hour and washed in PBS-T before analysis on BD FACS canto.

[2] = tested on: HCT116; experiment: RT-PCR of AREG RNA in HCT116 cells after chemotherapy; type: cell-based, human; conditions: IC50 dose, 48 hours
Experimental: FIG. 1B illustrates analysis of AREG and beta actin RNA expression in HCT116 +/+ with/without a 48 hour CPT11 treatment. RNA levels were analyzed following 35 cycles of PCR to determine relative differences in expression between treated and untreated samples;
FIG. 6 illustrates AREG upregulation following chemotherapeutic challenge in A) HT29, B) HCT116 and C) MDA-MB231 cells. Cells were treated with/without chemotherapy for 48 hours. RT-PCR was performed with 1 μg of total RNA using primer pairs specific for the human AREG gene or GAPDH. The PCR products were separated on 1.5% agarose gel electrophoresis and visualized by ethidium bromide staining.
Cells in a log phase of growth were seeded into T75 flask at ˜20% confluence and incubated overnight to allow adherence to the plate. […] Chemotherapy was substituted with saline in control flasks. After different time exposure to chemotherapy the cells were harvested, washed 3 times in PBS and total RNA was isolated using the RNA TAT-60 reagent according to the manufacturer instructions. […]
Semi quantitative RT-PCR was performed using a PTC 225 Gradient Cycler (MJ Research Incorporated. The PCR mixture, in a final volume of 25 μL, contains 12.5 μL of 2× Biomix (Bioline, UK), 2 μL of primers (10 μmol/L), 1 μL of cDNA and 9.5 μL of dH2O). […]

[3] = tested on: RKO +/+; experiment: Semi quantitative RT-PCR of AREG RNA in RKO cells after chemotherapy; type: cell-based, human; conditions: 48 h after treatment, 7.5 μM
Experimental: FIG. 1A illustrates analysis of AREG and beta actin RNA expression in RKO +/+ with/without either a 48 hour CPT11 treatment or 5-Fu treatment. RNA levels were analyzed following 35 cycle of PCR to determine relative differences in expression between treated and untreated samples;
Cells in a log phase of growth were seeded into T75 flask at ˜20% confluence and incubated overnight to allow adherence to the plate. […] Chemotherapy was substituted with saline in control flasks. After different time exposure to chemotherapy the cells were harvested, washed 3 times in PBS and total RNA was isolated using the RNA TAT-60 reagent according to the manufacturer instructions.
Reverse transcription was performed with 2.5 μg of RNA using a High Capacity cDNA Archive kit (Applied Biosystem) according to the instruction of the manufacturer.
Semi quantitative RT-PCR was performed using a PTC 225 Gradient Cycler (MJ Research Incorporated. The PCR mixture, in a final volume of 25 μL, contains 12.5 μL of 2× Biomix (Bioline, UK), 2 μL of primers (10 μmol/L), 1 μL of cDNA and 9.5 μL of dH2O). PCR conditions were initial denaturation step of 95 C for 10 minutes, followed by 35 cycles of 95° C. for 30 sec for denaturation; as annealing step 55° C. for 30 sec; and extension at 72° C. for 90 sec, with a final extension of 72° C. for 10 minutes. […]

[4] = tested on: RKO +/+; experiment: Western blot of AREG protein in RKO lysates after chemotherapy; type: cell-based, human; conditions: RKO p53 wild type lysates; 48 hour treatment
Experimental: (§1) FIG. 2 illustrates western blot analysis of AREG and gamma tubulin protein expression in HCT116 +/+ and RKO +/+ with/without a 48 hour CPT11 or 5-Fu treatment; HCT 116, RKO, HT 29 and H630 are human colorectal carcinoma cell lines. After different time exposure to chemotherapy the cells were harvested, and washed in 1×PBS. The cell pellet was then lysed in a suitable amount of 1×RIPA lysis buffer (150 mM NaCl, 10 mM Tris at pH 7.2, 0.1% SDS, 1.0% triton X-100 and 5 mM.EDTA) supplemented with protease inhibitors. The cell lysate was briefly vortexed, incubated on ice for 10 min and then centrifuged at 12,000 rpm to remove cell debris. Following centrifugation, the lysate supernatant was removed to a fresh eppendorf tube. Protein concentrations were assayed using the BCA Protein Assay (Pierce) according to the manufacturer's instructions. The absorbance of each sample at 620 nm was assayed using a microplate reader. A standard BSA curve was plotted for each experiment and the protein concentration of each sample calculated. To each sample an equal volume of 5× Western sample buffer and 10% of the final volume of β-mercaptoethanol (Sigma) was added. The samples were denatured at 95° C. for 5 minutes and placed on ice prior to loading onto SDS polyacrylamide gel (SDS PAGE). […] Protein bands were detected by exposure to autoradiograph which was subsequently developed. […]

[5] = tested on: HCT116 +/+; experiment: Western blot of AREG protein in HCT116 lysates after chemotherapy; type: cell-based, human; conditions: HCT116 p53 wild type lysates; 48 hour treatment
Experimental: as §1

SMILES: CCc1c2c(nc3ccc(OC(=O)N4CCC(N5CCCCC5)CC4)cc13)-c1cc3c(c(=O)n1C2)COC(=O)[C@]3(O)CC [CPT-11, irinotecan]
- AREG surface expression levels (FACS), detected by clones 3H5 and 3F8 [1]: up-regulation in expression levels
- AREG mRNA expression (RT-PCR) [2]: up-regulation
- AREG RNA expression (RT-PCR) [3]: upregulation
- AREG protein expression (western blot) [4]: Enhanced AREG expression
- AREG protein expression (western blot) [5]: Enhanced AREG expression
